US11857570B2, “Natural composition for use in gynecology” (Organicare LLC, priority 2017, dated 2024)

How the values were obtained:
bacterial vaginosis = conditions: at 3 months; cited from earlier work
[1] = tested on: transformed human vaginal epithelial cells (Episkin); test: Cell survival test (MTT) with three-dimensional vaginal epithelium reconstructed in vitro; assay type: cell-based
Description: The potential skin irritation on the vaginal epithelium was evaluated in vitro by means of a cytotoxicity assay: cell survival test with three-dimensional vaginal epithelium reconstructed in vitro (MTT test). The three-dimensional cell model used in the test consists of 0.5 cm^2 diameter units of cultures of transformed human vaginal epithelial cells, maintained for 5 days in a chemically defined culture medium and in contact with air on inert polycarbonate filters. The model was purchased from Episkin® (Lyons, lot 16-HVE-015).
Sodium lauryl sulphate (SLS) dissolved at 0.5% by weight in a phosphate buffer (Euroclone) was used as a positive control. The phosphate buffer was used on its own as a negative control. Exposure took place for 1 and 6 hours at about 37° C., 5% CO2. At the end of exposure, the epithelium was washed with phosphate buffer. The epithelium was incubated for 3 h at 37° C. with a 1 mg/ml solution of MTT (3-[4,5-dimethylthiazol-2-yl]-2,5-diphenyltetrazoliumbromide).
The solution was subsequently removed and replaced with isopropanol, with […]
successive hours of incubation at room temperature. 2 aliquots of each epithelium were transferred into a 96-well plate for the absorbance reading, which was carried out at a wavelength of 570 nm with a Tecan Sunrise remote colorimeter, equipped with a plate reader.
Through the creation of a dose-response curve, the cytotoxicity data obtained with the MTT test (Table 5) make it possible to determine the theoretical value of ET50, that is, the time in minutes that induces a 50% reduction in cell viability in the epithelium compared to untreatedcells.

| SMILES | risk of relapse (bacterial vaginosis) | % mean cell viability 1 h treatment ([1]; MTT, 1 h exposure, reconstructed human vaginal epithelium) | % mean cell viability 6 h treatment ([1]; MTT, 6 h exposure, reconstructed human vaginal epithelium) | ET50 ([1]; time that induces a 50% reduction in cell viability compared to untreated cells) |
| --- | --- | --- | --- | --- |
| Cc1ncc([N+](=O)[O-])n1CCO [metronidazole] | 33 % of women |  |  |  |
| CCCCCCCCCCCCOS(=O)(=O)[O-].[Na+] [Positive control, Sodium lauryl sulphate] |  | 8.26% | 6.54% | 32.70 min |
